The values that follow come from ChEMBL document CHEMBL1201862, “PubChem BioAssay data set” (2004).

Test systems include CAKI-1; SNB-75; NCI-H522; SK-MEL-2; HCT-15; U-251; UACC-257; A498; IGROV-1; RPMI-8226; SW-620; SK-OV-3; SF-539; HCC 2998; SF-295; HCT-116; NCI-H460; MOLT-4; PC-3.
Common to all, as to assay: NCI-60 cell line screen, 48 h

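Test compounds were applied to cells in 96-well plates for 48 hours at 5 doses. Here, GI50 denotes the concentration required for 50% inhibition of growth.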 Activity calls are given as the source filed them. No stated cut-off is given here; in the data, active = GI50 up to about 1.1 µM and inactive = higher.

Consider `CCNC(C)Cc1ccccc1` (stereo unspecified), for which the GI50 was > 100 µM (inactive) in the test with CAKI-1; 6.71 µM (inactive) in the test with SNB-75; > 100 µM (inactive) with NCI-H522; > 100 µM (inactive) with SK-MEL-2; greater than 100 µM in the test on HCT-15; > 100 µM (inactive) in the test on U-251. In addition, the GI50 in the test with UACC-257, with A498, with IGROV-1, in the test on RPMI-8226, in the test on SW-620 and with SK-OV-3 was > 100 µM (inactive) throughout. Besides, the GI50 in the test with SF-539, with HCC 2998, in the test on SF-295, in the test with HCT-116 and in the test with NCI-H460 was > 100 µM (inactive) in each case.
On to `CC(=O)OC12c3ccccc3C1CCCC21OCCCO1` (stereo unspecified), for which the GI50 is > 100 µM (inactive) in the test with CAKI-1; 37.5 µM (inactive) with SNB-75; > 100 µM (inactive) with NCI-H522; > 100 µM (inactive) with SK-MEL-2; greater than 100 µM in the test on HCT-15; > 100 µM (inactive) in the test on U-251. The GI50 in the test with UACC-257, in the test with A498, in the test on MOLT-4, with IGROV-1, in the test on RPMI-8226 and in the test with SW-620 was > 100 µM (inactive) throughout. The GI50 with SK-OV-3, in the test on SF-539, with HCC 2998, with SF-295, in the test on HCT-116 and in the test on NCI-H460 was > 100 µM (inactive) each time.
Regarding `COC(=O)c1s/c(=N\C(=S)N(C)C)n(-c2ccc(Cl)cc2)c1C(=O)OC`, the GI50 was 59.2 µM (inactive) in the test with CAKI-1; > 10 µM (inactive) with SNB-75; 49 µM (inactive) in the test with NCI-H522; > 100 µM (inactive) in the test with SK-MEL-2; greater than 100 µM in the test with HCT-15; > 100 µM (inactive) in the test with U-251. The GI50 with UACC-257 is > 100 µM (inactive); in the test on A498, > 100 µM (inactive); in the test with MOLT-4, > 100 µM (inactive); with IGROV-1 it was > 10 µM (inactive); in the test with RPMI-8226, > 100 µM (inactive); in the test with SW-620 it was > 100 µM (inactive). Further, the GI50 in the test on SK-OV-3 is > 10 µM (inactive); in the test with SF-539 it was 95.5 µM (inactive); with HCC 2998 it was > 100 µM (inactive); with SF-295, > 100 µM (inactive); in the test on HCT-116, > 100 µM (inactive); in the test on NCI-H460, 71.8 µM (inactive).
Turning to `CC1NC(=O)CC(c2ccccc2)N(N=O)C1c1ccccc1` (stereo unspecified), the GI50 in the test on CAKI-1 is 37.1 µM (inactive); with SNB-75, 25.4 µM (inactive); in the test on NCI-H522 it was 22.1 µM (inactive); with SK-MEL-2, 39.5 µM (inactive); with HCT-15 it was 39.5 µM; with U-251 it was 39.6 µM (inactive). Moreover, the GI50 with UACC-257 is 55.6 µM (inactive); in the test with A498, 8.89 µM (inactive); with MOLT-4, 31.4 µM (inactive); in the test with IGROV-1 it was 42.1 µM (inactive); with RPMI-8226, 26.5 µM (inactive); with SW-620 it was 20.6 µM (inactive). Moreover, the GI50 in the test with SK-OV-3 is 22.8 µM (inactive); with SF-539, 23.4 µM (inactive); in the test with HCC 2998, 35.4 µM (inactive); in the test on SF-295, 30.7 µM (inactive); with HCT-116, 37.1 µM (inactive); in the test with NCI-H460, 25.8 µM (inactive).
For `COc1ccc(N2C(=O)[C@@H]3[C@@H]4CC(C)CC[C@@H]4c4c([nH]c5ccccc45)[C@@H]3C2=O)cc1` (stereo partly specified), the GI50 in the test with CAKI-1 was 29 µM (inactive); in the test with SNB-75 it was 2.82 µM (inactive); in the test on NCI-H522, 19.4 µM (inactive); with SK-MEL-2, 8.79 µM (inactive); with HCT-15 it was 15.3 µM; with U-251 it was 11.4 µM (inactive). Also, the GI50 in the test on UACC-257 was 53.8 µM (inactive); with A498 it was 16.4 µM (inactive); in the test on MOLT-4, 19.8 µM (inactive); in the test with IGROV-1, 18.8 µM (inactive); in the test with RPMI-8226 it was > 10 µM (inactive); in the test on SW-620 it was 13.1 µM (inactive). Besides, the GI50 with SK-OV-3 was 7.98 µM (inactive); in the test on SF-539, 8.38 µM (inactive); in the test on HCC 2998, 13.5 µM (inactive); in the test on SF-295, 12.4 µM (inactive); in the test on HCT-116 it was 6.44 µM (inactive); in the test on NCI-H460 it was 13.5 µM (inactive).
In the case of `COc1cc([C@@H]2c3cc4c(cc3[C@@H](NC(=O)c3ccc(C(C)=O)cc3)C3COC(=O)[C@@H]32)OCO4)cc(OC)c1O` (stereo partly specified), the GI50 in the test on CAKI-1 is 1.9 µM (inactive); in the test with SNB-75, 1.24 µM (inactive); in the test on NCI-H522 it was 1.1 µM (active); with SK-MEL-2, 2.82 µM (inactive); in the test on HCT-15 it was 2.46 µM; in the test with U-251 it was 0.0743 µM (active). Moreover, the GI50 is 3.88 µM (inactive) with UACC-257; 1.66 µM (inactive) with A498; < 0.01 µM (active) in the test with MOLT-4; 1.03 µM (active) with IGROV-1; 0.877 µM (active) in the test with RPMI-8226; 0.24 µM (active) in the test with SW-620. For the same compound, the GI50 in the test on SK-OV-3 was 1.56 µM (inactive); with SF-539, 0.316 µM (active); with HCC 2998 it was 1.41 µM (inactive); in the test on SF-295, 0.6 µM (active); in the test with HCT-116, 0.52 µM (active); in the test on NCI-H460, < 0.01 µM (active).
On to `CCOC(=O)NC1CC2CCC1(OC)C=C2C` (stereo unspecified), for which the GI50 is > 53.5 µM (inactive) in the test with CAKI-1; > 100 µM (inactive) in the test with SNB-75; > 100 µM (inactive) in the test with NCI-H522; > 100 µM (inactive) with SK-MEL-2; greater than 100 µM in the test with HCT-15; > 100 µM (inactive) in the test on U-251. Besides, the GI50 in the test on UACC-257 was > 100 µM (inactive); in the test on A498, > 100 µM (inactive); in the test with MOLT-4, > 100 µM (inactive); in the test on IGROV-1, > 100 µM (inactive); in the test on RPMI-8226, > 100 µM (inactive); with SW-620, > 90.6 µM (inactive). Also, the GI50 in the test on SK-OV-3, in the test on SF-539, in the test on HCC 2998, in the test with SF-295, in the test on HCT-116 and in the test with NCI-H460 was > 100 µM (inactive) each time.
Take `CC(=O)N/C=C/c1cc(O)ccc1O`: the GI50 in the test with CAKI-1 is 16.6 µM (inactive); with SNB-75 it was 48.3 µM (inactive); with NCI-H522 it was 3.67 µM (inactive); in the test on SK-MEL-2, 34.9 µM (inactive); with HCT-15, 40.8 µM; in the test with U-251, 37.2 µM (inactive). For the same compound, the GI50 with UACC-257 is 31 µM (inactive); in the test with A498 it was 51.3 µM (inactive); with MOLT-4, 11.9 µM (inactive); in the test with IGROV-1, > 55.1 µM (inactive); in the test on RPMI-8226 it was 40.3 µM (inactive); in the test on SW-620 it was 13.9 µM (inactive). In addition, the GI50 in the test on SK-OV-3 was > 58.5 µM (inactive); with SF-539, 35.5 µM (inactive); in the test on HCC 2998, 50.8 µM (inactive); in the test with SF-295, 32.3 µM (inactive); in the test on HCT-116 it was 32.5 µM (inactive); in the test with NCI-H460, > 60.7 µM (inactive).
As for `COc1cccc(/C=N/NC(=O)CN(C)C)c1O`, the GI50 in the test on CAKI-1 was > 100 µM (inactive); with SNB-75, < 0.01 µM (active); with NCI-H522 it was > 100 µM (inactive); in the test with HCT-15, greater than 100 µM; in the test on U-251, > 100 µM (inactive); with UACC-257, > 100 µM (inactive). Also, the GI50 in the test with A498, with MOLT-4, in the test on IGROV-1, in the test with SW-620, in the test with SK-OV-3 and in the test on SF-539 was > 100 µM (inactive) throughout. Moreover, the GI50 in the test on HCC 2998, in the test with SF-295, in the test with HCT-116, with PC-3 and in the test on NCI-H460 was > 100 µM (inactive) in each case.
`CN(C)CCNc1c2ccccc2c2c3c(cccc13)C(=O)N(CCN(C)C)C2=O`: the GI50 was 0.423 µM (active) in the test with CAKI-1; 0.176 µM (active) in the test on SNB-75; 0.123 µM (active) with NCI-H522; 0.188 µM (active) in the test on SK-MEL-2; 0.0615 µM in the test with HCT-15; 0.121 µM (active) in the test with U-251. Besides, the GI50 with UACC-257 is 0.49 µM (active); with A498, 0.641 µM (active); with MOLT-4, 0.0625 µM (active); in the test on IGROV-1, 0.0968 µM (active); with RPMI-8226 it was 0.288 µM (active); with SW-620, 0.0532 µM (active). Further, the GI50 is 0.221 µM (active) in the test with SK-OV-3; 0.374 µM (active) in the test on SF-539; 0.152 µM (active) with HCC 2998; 0.069 µM (active) in the test on SF-295; 0.0254 µM (active) with HCT-116; 0.0448 µM (active) in the test on NCI-H460.
For the compound `O=C(CCN(C(=O)O)S(=O)(=O)c1ccc(NC(=O)c2ccccc2)cc1)NC1CCCCC1`, the GI50 was > 100 µM (inactive) in the test on CAKI-1; > 100 µM (inactive) in the test with SNB-75; > 100 µM (inactive) in the test with NCI-H522; > 100 µM (inactive) in the test on SK-MEL-2; 47.6 µM in the test with HCT-15; 36.3 µM (inactive) with U-251. Further, the GI50 in the test on UACC-257 was > 100 µM (inactive); with A498, > 100 µM (inactive); with MOLT-4, 21.4 µM (inactive); with IGROV-1, > 100 µM (inactive); in the test on RPMI-8226, 16.5 µM (inactive); in the test on SW-620 it was 16.3 µM (inactive). The GI50 with SK-OV-3 is > 100 µM (inactive); in the test with SF-539, > 100 µM (inactive); in the test on HCC 2998 it was > 100 µM (inactive); with SF-295, > 100 µM (inactive); in the test on HCT-116, > 100 µM (inactive); in the test on NCI-H460, 42.4 µM (inactive).
